# From paper PMC6601062, “Identification of duck liver-expressed antimicrobial peptide 2 and characterization of its bactericidal activity” (Asian-Australasian Journal of Animal Sciences, 2018)
# Bridge positions count the residues as written; N and C are the ends. Peptide text beside a SMILES is read from it.
# Assays:
# [1] = test system: Listeria monocytogenes ATCC 19115; experiment: Killing kinetics (colony counting); assay type: cell-based; conditions: 200 μg/mL peptide, 37°C, PBS pH 7.4; sampled at 0, 30, 60, 90, 180 min
# Experimental: (§1) Bacteria were cultured overnight at 37°C in LB broth for E. coli, and in tryptic soy broth for the other bacteria, and suspended to 5.0×10^5 colony-forming units (CFU)/mL in PBS (pH 7.4). To measure antimicrobial activity, 25 μL of bacteria were added into 96-well microtiter plates and diluted duck LEAP-2 peptides were dispensed to final concentrations of 50, 100, 150, and 200 μg/mL. After 3 h of incubation at 37°C, surviving bacteria were counted using a standard colony counting assay according to the following formula: cell survival % = (treatment CFU/negative control CFU)×100. To determine the killing kinetics, L. monocytogenes and S. aureus were cultured overnight in tryptic soy broth and suspended to 5.0×10^5 CFU/mL in PBS (pH 7.4). Bacteria were added into 96-well microtiter plates with a final peptide concentration of 200 μg/mL. The bacteria and peptide mixture was incubated for 0, 30, 60, 90, and 180 min at 37°C. Surviving bacteria were counted using a standard colony counting assay.
# [2] = test system: Staphylococcus aureus; experiment: Killing kinetics (colony counting); assay type: cell-based; conditions: 200 μg/mL peptide, 37°C, PBS pH 7.4; sampled at 0, 30, 60, 90, 180 min
# Experimental: as §1
# [3] = test system: Salmonella enterica serovar Enteritidis YHS 383; experiment: Antimicrobial activity assay (colony counting); assay type: cell-based; conditions: 3 h at 37°C, PBS pH 7.4, colony counting; concentration not given
# Experimental: (§2) The bacterial species used in this experiment included two gram-positive bacteria strains, Listeria monocytogenes (L. monocytogenes) ATCC 19115 and Staphylococcus aureus (S. aureus) ATCC 27664, and four gram-negative bacteria strains, E. coli ATCC 43888, Salmonella enterica serovar Enteritidis YHS 383, Salmonella enterica serovar Choleraesuis YHS 386, and Salmonella enterica serovar Typhimurium ATCC 43174.
# as §1
# [4] = test system: L. monocytogenes; experiment: Fluorescence microscopic analysis, LIVE/DEAD BacLight staining; assay type: cell-based, Listeria monocytogenes; conditions: 200 μg/mL peptide, 3 h at 37°C, SYTO9 / propidium iodide
# Experimental: (§3) E. coli, S. aureus, and L. monocytogenes (5.0×10^5 CFU/mL) in PBS were incubated with a 200 μg/mL (final concentration) of the disulfide-LEAP-2 peptide for 3 h at 37°C. After incubation, the cells were washed with PBS and stained with LIVE/DEAD BacLight Bacterial Viability Kits (Invitrogen, USA) according to the manufacturer’s instructions. In brief, the bacteria were incubated for 15 min with SYTO9 green fluorescent […] and with propidium iodide in a dark room. The cells were then mounted onto glass slides and examined using EVOS FLoid Cell Imaging Station (Invitrogen, USA).
# [5] = test system: S. aureus; experiment: as above; assay type: cell-based, Staphylococcus aureus; conditions: 200 μg/mL peptide, 3 h at 37°C, SYTO9 / propidium iodide
# Experimental: as §3
# [6] = test system: E. coli; experiment: as above; assay type: cell-based, Escherichia coli; conditions: 200 μg/mL peptide, 3 h at 37°C, SYTO9 / propidium iodide
# Experimental: as §3
# [7] = test system: E. coli ATCC 43888; experiment: Antimicrobial activity assay (colony counting); assay type: cell-based, Escherichia coli; conditions: 50 μg/mL peptide, 3 h at 37°C, PBS pH 7.4, colony counting
# Experimental: as §2
# as §1, with “The bacteria and peptide mixture was incubated for 0, 30, 60, 90, and 180 min at 37°C.” left out
# [8] = test system: Staphylococcus aureus (S. aureus) ATCC 27664; experiment: Antimicrobial activity assay (colony counting); assay type: cell-based; conditions: 50 μg/mL peptide, 3 h at 37°C, 5.0×10^5 CFU/mL in PBS pH 7.4, colony counting
# Experimental: as §2, §1
# [9] = test system: Salmonella enterica serovar Typhimurium ATCC 43174; experiment: Antimicrobial activity assay (colony counting); assay type: cell-based; conditions: 200 μg/mL peptide, 3 h at 37°C, PBS pH 7.4, colony counting
# Experimental: as §2, §1
# [10] = test system: Listeria monocytogenes (L. monocytogenes) ATCC 19115; experiment: Antimicrobial activity assay (colony counting); assay type: cell-based; conditions: 50 μg/mL peptide, 3 h at 37°C, 5.0×10^5 CFU/mL in PBS pH 7.4, colony counting
# Experimental: as §2, §1
Structure (SMILES),time in which all L. monocytogenes were killed [1] [min],killing of S. aureus over time [2],S. Enteritidis inhibited [3],live/dead staining of L. monocytogenes (red fluorescence = dead) [4],live/dead staining of S. aureus (red fluorescence = dead) [5],live/dead staining of E. coli (red fluorescence = dead) [6],E. coli killed [7],killing of S. aureus [8],"killing effect / inhibition of cell proliferation, S. Typhimurium [9] [%]",killing of L. monocytogenes [10]
CC[C@H](C)[C@H](NC(=O)[C@H](CS)NC(=O)[C@H](CCC(=O)O)NC(=O)[C@H](CO)NC(=O)[C@H](CC(N)=O)NC(=O)[C@H](CC(=O)O)NC(=O)[C@H](CCCNC(=N)N)NC(=O)[C@H](CS)NC(=O)[C@H](CO)NC(=O)[C@H](C)NC(=O)CNC(=O)[C@@H](NC(=O)[C@@H]1CCCN1C(=O)[C@H](CCCNC(=N)N)NC(=O)[C@H](CC(C)C)NC(=O)[C@H](CO)NC(=O)[C@@H](NC(=O)CNC(=O)[C@H](CCCNC(=N)N)NC(=O)[C@H](Cc1c[nH]c2ccccc12)NC(=O)[C@H](Cc1ccccc1)NC(=O)[C@@H]1CCCN1C(=O)[C@@H](NC(=O)[C@@H](N)CCSC)[C@@H](C)O)C(C)C)[C@@H](C)CC)C(=O)N[C@H](C(=O)N[C@@H](CCSC)C(=O)N[C@@H](CC(C)C)C(=O)N[C@@H](CS)C(=O)N[C@@H](CCCNC(=N)N)C(=O)N[C@@H](CCCCN)C(=O)N[C@@H](CC(N)=O)C(=O)N[C@@H](CCCNC(=N)N)C(=O)N[C@@H](CS)C(=O)N[C@@H](Cc1ccccc1)C(=O)N[C@@H](CC(C)C)C(=O)N[C@@H](CCCNC(=N)N)C(=O)N[C@@H](CO)C(=O)N[C@@H](C)C(=O)N[C@@H](CO)C(=O)N[C@@H](CCC(=O)O)C(=O)O)[C@@H](C)O [linear LEAP-2] (H-MTPFWRGVSLRPIGASCRDNSECITMLCRKNRCFLRSASE-OH; N-terminus and C-terminus assumed),≤ 30,killed S. aureus gradually over time,not inhibited,,,,,,,
"CC[C@H](C)[C@@H]1NC(=O)[C@@H]2CSSC[C@@H](C(=O)N[C@@H](Cc3ccccc3)C(=O)N[C@@H](CC(C)C)C(=O)N[C@@H](CCCNC(=N)N)C(=O)N[C@@H](CO)C(=O)N[C@@H](C)C(=O)N[C@@H](CO)C(=O)N[C@@H](CCC(=O)O)C(=O)O)NC(=O)[C@H](CCCNC(=N)N)NC(=O)[C@H](CC(N)=O)NC(=O)[C@H](CCCCN)NC(=O)[C@H](CCCNC(=N)N)NC(=O)[C@H](CSSC[C@H](NC(=O)[C@H](CO)NC(=O)[C@H](C)NC(=O)CNC(=O)[C@@H](NC(=O)[C@@H]3CCCN3C(=O)[C@H](CCCNC(=N)N)NC(=O)[C@H](CC(C)C)NC(=O)[C@H](CO)NC(=O)[C@@H](NC(=O)CNC(=O)[C@H](CCCNC(=N)N)NC(=O)[C@H](Cc3c[nH]c4ccccc34)NC(=O)[C@H](Cc3ccccc3)NC(=O)[C@@H]3CCCN3C(=O)[C@@H](NC(=O)[C@@H](N)CCSC)[C@@H](C)O)C(C)C)[C@@H](C)CC)C(=O)N[C@@H](CCCNC(=N)N)C(=O)N[C@@H](CC(=O)O)C(=O)N[C@@H](CC(N)=O)C(=O)N[C@@H](CO)C(=O)N[C@@H](CCC(=O)O)C(=O)N2)NC(=O)[C@H](CC(C)C)NC(=O)[C@H](CCSC)NC(=O)[C@H]([C@@H](C)O)NC1=O [disulfide LEAP-2] (H-MTPFWRGVSLRPIGASCRDNSECITMLCRKNRCFLRSASE-OH; disulfide 17-28, 23-33; N-terminus and C-terminus assumed)",≤ 30,killed S. aureus gradually over time,,most of the cells were dead,most of the cells were dead,most of the cells were dead,more than 90%,killed most,90,killed most
